Results: US20030129222A1, “Liposomal imexon” (priority 2000, published 2003)
Counter-ions that a name gives are not always drawn.

Columns and labels:
[1] = tested on: L1210 leukemia, Mdr; experiment: Cytotoxicity in tumor cell culture, MTT assay; assay type: cell-based, murine; conditions: MTT assay, multidrug-resistant; read-out: IC50 against human mouse tumors, L1210 leukemia Mdr
Source text: (§1) Relative potencies of the N-substituted 2-cyanoaziridine-1-carboxamides in a panel of tumor cell cultures are compared in Table 3. This panel includes the following lines of human tumor cells: sensitive and imexon-resistant lines of multiple myeloma (Matsuoka et al., 1967); ovarian carcinoma resistant to standard drugs (Hamilton et al., 1984); melanoma with a slow growth fraction (Girard et al., 1973); breast carcinoma including sensitive, doxorubicin-resistant (P-glycoprotein-positive) (Taylor et al., 1991), and mitoxantrone-resistant (P-glycoprotein-negative) (Futscher et al., 1994) lines; sensitive and multidrug-resistant colon carcinoma (Noguchi et al., 1979; Dalton et al., 1988); and multidrug-resistant lung carcinoma (P-glycoprotein-negative) (Girard et al., 1973). It also has sensitive (Goldin et al., 1961) and multidrug-resistant (P-glycoprotein-positive) (Salmon and Hersh, 1994) murine L1210 leukemia cells.

[2] = tested on: L1210 leukemia, Sens; experiment: Cytotoxicity in tumor cell culture, MTT assay; assay type: cell-based, murine; conditions: MTT assay; read-out: IC50 against human mouse tumors, L1210 leukemia Sens
Source text: as §1

[3] = tested on: 8226 myeloma, Sens (drug-sensitive); experiment: Cytotoxicity in tumor cell culture, SRB assay; assay type: cell-based, human; conditions: drug-sensitive line; read-out: IC50 against human mouse tumors, 8226 myeloma Sens
Source text: as §1

[4] = tested on: A-549 lung; experiment: Cytotoxicity in tumor cell culture, SRB assay; assay type: cell-based, human; conditions: read-out: IC50 against human mouse tumors, A-549 lung
Source text: as §1

[5] = tested on: A375 melan; experiment: Cytotoxicity in tumor cell culture, SRB assay; assay type: cell-based, human; conditions: read-out: IC50 against human mouse tumors, A375 melan
Source text: as §1

[6] = tested on: MCF7 breast, Dox (doxorubicin-resistant); experiment: Cytotoxicity in tumor cell culture, SRB assay; assay type: cell-based, human; conditions: doxorubicin-resistant; read-out: IC50 against human mouse tumors, MCF7 breast Dox
Source text: as §1

[7] = tested on: MCF7 breast, Sens; experiment: Cytotoxicity in tumor cell culture, SRB assay; assay type: cell-based, human; conditions: read-out: IC50 against human mouse tumors, MCF7 breast Sens
Source text: as §1

[8] = tested on: MCF7 breast, mitox (mitoxantrone-resistant); experiment: Cytotoxicity in tumor cell culture, SRB assay; assay type: cell-based, human; conditions: mitoxantrone-resistant; read-out: IC50 against human mouse tumors, MCF7 breast mitox
Source text: as §1

[9] = tested on: OVCAR3 ovarian; experiment: Cytotoxicity in tumor cell culture, SRB assay; assay type: cell-based, human; conditions: read-out: IC50 against human mouse tumors, OVCAR3 ovarian
Source text: as §1

[10] = tested on: 8226 myeloma, Res (imexon-resistant); experiment: Cytotoxicity in tumor cell culture, SRB assay; assay type: cell-based; conditions: line made resistant to imexon; read-out: IC50 against human mouse tumors, 8226 myeloma Res
Source text: as §1

[11] = tested on: WiDr colon, Sens; experiment: Cytotoxicity in tumor cell culture, SRB assay; assay type: cell-based; conditions: read-out: IC50 against human mouse tumors, WiDr colon Sens
Source text: as §1

[12] = tested on: WiDr colon, res; experiment: Cytotoxicity in tumor cell culture, SRB assay; assay type: cell-based; conditions: multidrug-resistant; read-out: IC50 against human mouse tumors, WiDr colon res
Source text: as §1

[13] = cited from earlier work
[14] = intravenous injection, after distribution

Row | Structure (SMILES) | IC50 [1] [µM] | IC50 [2] [µM] | IC50 [3] [µM] | IC50 [4] [µM] | IC50 [5] [µM] | IC50 [6] [µM] | IC50 [7] [µM] | IC50 [8] [µM] | IC50 [9] [µM] | IC50 [10] [µM] | IC50 [11] [µM] | IC50 [12] [µM] | oral absorption ([13]; in vivo) | further results
1 | CCOC(=O)c1ccc(NC(=O)N2CC2C#N)cc1 (stereo not drawn) [Compound 19, 2-Cyanoaziridine-1-[N-(4-ethoxycarbonylphenyl)]carboxamide] | 9.7 | 9.7 | 3 | 2.9 | 5.8 | 2.1 | 2.3 | 3.3 | 7.7 | 3 | 2.5 | 4.2 |  | 
2 | CC(=O)c1cccc(NC(=O)N2CC2C#N)c1 (stereo not drawn) [Compound 20, 2-Cyanoaziridine-1-[N-(3-acetylphenyl)]carboxamide] | > 39 | > 39 | > 39 | > 41 | > 39 | > 16 | > 16 | > 16 | > 39 | > 39 | 40 | > 41 |  | 
3 | N#CC1CN1C(=O)Nc1ccc(S(N)(=O)=O)cc1 (stereo not drawn) [Compound 22, 2-Cyanoaziridine-1-[N-(4-sulfamylphenyl)]carboxamide] | > 38 | > 38 | > 38 | > 38 | 188 | > 15 | > 15 | > 15 | 188 | > 38 | > 38 | > 38 |  | 
4 | COc1cccc2c1C(=O)c1c(O)c3c(c(O)c1C2=O)C[C@@](O)(C(C)=O)C[C@@H]3O[C@H]1C[C@H](N)[C@H](O)[C@H](C)O1 [Daunorubicin, 5,12-Naphthacenedione, (8S-cis)-8-acetyl-10-[(3-amino-2,3,6-trideoxy-a-L-lyxo-hexanopyranosyl)oxy]-7,8,9,10-tetrahydro-6,8,11-trihydroxy-10-methoxy-, hydrochloride] |  |  |  |  |  |  |  |  |  |  |  |  | poor | half-life of elimination ([13]; in vivo): about 19 hours
5 | COc1cccc2c1C(=O)c1c(O)c3c(c(O)c1C2=O)C[C@@](O)(C(=O)CO)C[C@@H]3O[C@H]1C[C@H](N)[C@H](O)[C@H](C)O1 [Doxorubicin, 5,12-Naphthacenedione, (8s-cis)-10-[(3-amino-2,3,6-trideoxy-a-L-lyxo-hexopyranosyl)oxy]-7,8,9,10-tetrahydro-6,8,11-trihydroxy-8-(hydroxyacetyl)-1-methoxy-hydrochloride] |  |  |  |  |  |  |  |  |  |  |  |  | absorbed poorly | elimination half-life ([13]; in vivo): about 30 hours
6 | O=NN(CCCl)C(=O)NC1CCCCC1 [Lomustine, 1-(2-chloro-ethyl)-3-cyclohexyl-1 nitrosourea] |  |  |  |  |  |  |  |  |  |  |  |  |  | radioactivity excreted in the form of degradation products within 24 hours ([13]; oral radioactive lomustine, about 30 mg/m^2 to 100 mg/m^2): about half
7 | CC[C@]1(O)C[C@@H]2CN(CCc3c([nH]c4ccccc34)[C@@](C(=O)OC)(c3cc4c(cc3OC)N(C)[C@H]3[C@@](O)(C(=O)OC)[C@H](OC(C)=O)[C@]5(CC)C=CCN6CC[C@]43[C@@H]65)C2)C1 [Vinblastine] |  |  |  |  |  |  |  |  |  |  |  |  | Unpredictable absorption | dose recovered in the feces after biliary excretion ([13]; in vivo): about 10%; plasma half-life, first [13, 14]: approximately 1 hours; plasma half-life, second [13, 14]: ~20 h
8 | CC[C@]1(O)C[C@H]2CN(CCc3c([nH]c4ccccc34)[C@@](C(=O)OC)(c3cc4c(cc3OC)N(C=O)[C@H]3[C@@](O)(C(=O)OC)[C@H](OC(C)=O)[C@]5(CC)C=CCN6CC[C@]43[C@@H]65)C2)C1 [Vincristine] |  |  |  |  |  |  |  |  |  |  |  |  | Unpredictable absorption | terminal half-life ([13]; plasma): about 24 hours
9 | COc1cccc2c1C(=O)c1c(O)c3c(c(O)c1C2=O)C[C@@](O)([C@H](C)O)C[C@@H]3O[C@H]1C[C@H](N)[C@H](O)[C@H](C)O1 [daunorubicinol] |  |  |  |  |  |  |  |  |  |  |  |  |  | half-life of active metabolite ([13]; metabolite of daunorubicin): about 27 hours
